≈ marks a conversion by molar mass, not a printed value. Square brackets hold non-standard residues; d marks the D form. Peptide text beside a SMILES is read from it. * marks the point of attachment. Palmitoyl = CCCCCCCCCCCCCCCC(=O)*; Dab = NCC[C@H](N)C(=O)O
Key:
[1] = tested on: 46BR.1N human skin fibroblasts cell line; assay type: cell-based
Method: (§1) Cytotoxicity was determined towards immortalized human HaCaT keratinocytes (DKFZ, Heidelberg, Germany), transformed human fibroblast cell line 46BR.1N (ECACC), as well as the human melanoma (A375), human lung cancer (A549), human colon cancer (HCT-116), human colon adenocarcinoma (HT-29), and human prostate cancer (LNCaP) cell lines. Keratinocytes and fibroblast cell lines were maintained in a humidified atmosphere with 5% CO2 at 37 °C in a Dulbecco’s modified Eagle’s medium (DMEM) (Sigma-Aldrich, Steinheim, Germany), which contained 4500 mg/L of glucose, 584 mg/L of L-glutamine, sodium pyruvate, and sodium bicarbonate. Additionally, the medium was supplemented with 10% of fetal bovine serum (FBS) (Sigma-Aldrich, Steinheim, Germany), 100 U/mL of penicillin, and 100 µg/mL of streptomycin (Sigma-Aldrich, Steinheim, Germany). The cells were grown in culture dishes (BD, Franklin Lakes, NJ, USA) and the medium was changed every 2 days. Afterwards, the fibroblasts and keratinocytes were harvested using a standard trypsin-EDTA solution, centrifuged, suspended in a medium supplemented with 10% FBS and seeded at a density of 5500–6000 cells per well into 96-well plates. After 24 h, the medium was exchanged with a serum- and antibiotic-free DMEM. The next day, serially diluted solutions of the lipopeptides prepared in a fresh FBS- and antibiotic-free medium were added to the wells. The potential cytotoxic effect of the compounds was analyzed over the concentration range of 1–25 µg/mL. After addition of the lipopeptides, cells were incubated for the next 24 h. At the end of the experiment, the cells were treated with 20 µL of MTT (5 mg/mL in PBS). After 3 h at 37 °C under 5% CO2, the medium was discarded and replaced by 6 mM HCl in isopropanol. As soon as the purple crystals of formazan were completely solubilized, absorbance was read at 570 nm with a plate reader. The optical density of the wells without the tested compounds were regarded as the positive control. The MTT assay was performed in triplicate for each cell line.
(§2) Determination of the half-maximum inhibitory concentrations (IC50) was done using GraphPad Prism 5 software (San Diego, CA, USA) based on the dose-response curves. The logarithm of the different concentrations of compounds was plotted against the percentage of inhibition in cell viability as compared with control probes, treated as 100%.

[2] = tested on: HaCaT human keratinocyte cell line; assay type: cell-based
Method: as §1, §2

[3] = tested on: A375 human malignant melanoma cell line; assay type: cell-based
Method: (§3) In the case of evaluation of cytotoxicity towards different types of the cancer cell lines (A375, A549, HCT-116, HT-29, and LNCaP, respective cells were seeded in 96-well plates (4500 cell/well) in the RPMI-1640 medium supplemented with 5% FBS without antibiotics and incubated for 24 h before stimulation with the lipopeptides. The next day, the cells were exposed to the effect of the serially diluted compounds added at concentrations ranging from 1 to 25 µg/mL for a period of 48 h. After the treatment, cells viability was evaluated by means of MTT assays, according to standard protocol, as just described. The experiment was repeated three times for each cell line.
as §2

[4] = tested on: A549 human epithelial lung carcinoma; assay type: cell-based
Method: as §3, §2

[5] = tested on: HCT-116 human colorectal carcinoma; assay type: cell-based
Method: as §3, §2

[6] = tested on: HT-29 human colorectal adenocarcinoma; assay type: cell-based
Method: as §3, §2

[7] = tested on: LNCaP human prostate carcinoma; assay type: cell-based
Method: as §3, §2

[8] = NMR DOSY, 700 MHz
Method: NMR spectra were recorded on a Bruker AVANCE III 700 MHz spectrometer. The size of lipopeptide assemblies was determined by an NMR method measuring the self-diffusion coefficient (DOSY experiments). The lipopeptide self-diffusion coefficient, D, was measured by attenuation of the spin-echo signal intensity (I) as a function of gradient amplitude (g), expressed by the Stejskal–Tanner formula, I = I0exp[−Dg^2γ^2 δ^2(∆ − δ/3)] [39], where I0 is the echo intensity in the absence of the field gradient pulse, γ = 2.675 × 10^8 rad T^−1 s^−1 is the gyromagnetic ratio of the ^1H nucleus, δ is the duration of the field gradient pulse, and ∆ is the time period between two field gradient pulses. […] The spectra were processed and analyzed using Topspin 3.2 (Bruker, Billerica, MA, USA).

S. epidermidis = experiment: LIVE/DEAD SYTO9/PI bacterial viability staining, fluorescence microscopy; assay type: cell-based, Staphylococcus epidermidis; conditions: 8, 16 and 32 µg/mL (1×, 2×, 4× MIC), regardless of concentration; at least two independent replicates
Method: Bacteria were inoculated in the Luria–Bertani medium and cultured with shaking at 37 °C up to the early exponential phase (A600 = 0.1). Then, 1.5 mL of the cultures were transferred to 5 mL Eppendorf tubes and treated with suitable peptides added at concentrations of 1×, 2×, or 4× MIC. For the negative control, bacteria were treated with a pure vehicle (water). Next, the cells were cultured for 1 or 2 h, as indicated. To obtain a positive control, at the end of the incubation, one portion of bacteria was collected and suspended in 200 µL of 70% ethanol for 5 min. After incubation, bacteria were collected by centrifugation (10 min, 3000× g) and washed twice with 0.85% NaCl. To determine membrane integrity, bacteria were stained with a LIVE/DEAD™ BacLight™ Bacterial Viability Kit (Thermo Fisher Scientific, Waltham, MA, USA) containing two dyes, i.e., a bacterial membrane permeable SYTO9 (green fluorescence) and an impermeable propidium iodide (red fluorescence) that stains only bacteria with damaged membrane. The staining was performed according to the manufacturer instructions. Then, bacteria were collected by centrifugation and washed twice with 0.85% NaCl. Bacteria pellets were suspended in 10 µL of 0.85% NaCl. Next, 3 µL of each suspension were spotted on agarose pads, covered with coverslips and immediately imaged using fluorescence microscope (Leica DMI4000B) with 100× objective. […]

Compound	IC50, 46BR.1N (24h) [1] [µg/mL]	IC50, HaCaT (24h) [2] [µg/mL]	IC50, A375 (48h) [3] [µg/mL]	IC50, A549 (48h) [4] [µg/mL]	IC50, HCT-116 (48h) [5] [µg/mL]	IC50, HT-29 (48h) [6] [µg/mL]	IC50, LNCaP (48h) [7] [µg/mL]	first breakpoint of self-diffusion coefficient vs. concentration (premicellar state) [8]	second breakpoint of self-diffusion coefficient vs. concentration (micellar state) [8]	membrane integrity of S. epidermidis cells (SYTO9/PI staining) (S. epidermidis)
CCCCCCCCCCCCCCCC(=O)NCC[C@H](NC(=O)[C@@H](N)CCCCN)C(=O)N[C@@H](CCCCN)C(N)=O [K(DabC16)K-NH2] (H-Lys-[Dab](Palmitoyl)-Lys-NH2)	9.76 ± 0.70 (≈ 15.9 µM)	7.96 ± 2.49 (≈ 13 µM)	11.99 ± 0.38 (≈ 19.6 µM)	>25	16.79 ± 0.34 (≈ 27.4 µM)	21.56 ± 0.22 (≈ 35.2 µM)	14.3 ± 0.45 (≈ 23.4 µM)			
CCCCCCCCCCCCCCCC(=O)NCCC[C@H](NC(=O)[C@@H](N)CCCCN)C(=O)N[C@@H](CCCCN)C(N)=O [K(OC16)K-NH2]	9.02 ± 0.69 (≈ 14.4 µM)	6.25 ± 3.08 (≈ 9.98 µM)	21.60 ± 0.76 (≈ 34.5 µM)	>25	18.07 ± 0.54 (≈ 28.9 µM)	20.51 ± 0.41 (≈ 32.8 µM)	>25	around 6 mM	around 9 mM	
CCCCCCCCCCCCCCCC(=O)NCCCC[C@H](NC(=O)[C@H](CCCCN)NC(=O)[C@@H](N)CCCCN)C(=O)N[C@@H](CCCCN)C(=O)N[C@@H](CCCCN)C(N)=O [KK(KC16)KK-NH2] (H-KKK(Palmitoyl)KK-NH2)	7.56 ± 1.31 (≈ 8.43 µM)	11.92 ± 1.57 (≈ 13.3 µM)	>25	>25	15.98 ± 0.16 (≈ 17.8 µM)	18.98 ± 0.38 (≈ 21.2 µM)	>25			stained red
CCCCCCCCCCCCCCCC(=O)NCCCC[C@H](NC(=O)[C@@H](N)CCCCN)C(=O)N[C@@H](CCCCN)C(N)=O [K(KC16)K-NH2]	9.36 ± 2.31 (≈ 14.6 µM)	9.08 ± 2.28 (≈ 14.2 µM)	20.34 ± 1.47 (≈ 31.8 µM)	>25	20.72 ± 0.62 (≈ 32.4 µM)	21.97 ± 1.10 (≈ 34.3 µM)	>25			

— paper PMC7728077, “Double-Headed Cationic Lipopeptides: An Emerging Class of Antimicrobials” (International Journal of Molecular Sciences, 2020)
